# In patent US20230295197A1, “STAT5 and STAT6 Degraders and Uses Thereof” (REGENTS OF THE UNIVERSITY OF MICHICAN, priority 2022, published 2023):
# Where two headings read alike, the source gives them in different places.
# Molecular target: T1, STAT6 (Homo sapiens, UniProt P42226)
# T1 construct: endogenous in cells; host or cells: MOLM-16, KU-812, SKNO1, MB231, L1236
# T1 sequence (P42226 1-847): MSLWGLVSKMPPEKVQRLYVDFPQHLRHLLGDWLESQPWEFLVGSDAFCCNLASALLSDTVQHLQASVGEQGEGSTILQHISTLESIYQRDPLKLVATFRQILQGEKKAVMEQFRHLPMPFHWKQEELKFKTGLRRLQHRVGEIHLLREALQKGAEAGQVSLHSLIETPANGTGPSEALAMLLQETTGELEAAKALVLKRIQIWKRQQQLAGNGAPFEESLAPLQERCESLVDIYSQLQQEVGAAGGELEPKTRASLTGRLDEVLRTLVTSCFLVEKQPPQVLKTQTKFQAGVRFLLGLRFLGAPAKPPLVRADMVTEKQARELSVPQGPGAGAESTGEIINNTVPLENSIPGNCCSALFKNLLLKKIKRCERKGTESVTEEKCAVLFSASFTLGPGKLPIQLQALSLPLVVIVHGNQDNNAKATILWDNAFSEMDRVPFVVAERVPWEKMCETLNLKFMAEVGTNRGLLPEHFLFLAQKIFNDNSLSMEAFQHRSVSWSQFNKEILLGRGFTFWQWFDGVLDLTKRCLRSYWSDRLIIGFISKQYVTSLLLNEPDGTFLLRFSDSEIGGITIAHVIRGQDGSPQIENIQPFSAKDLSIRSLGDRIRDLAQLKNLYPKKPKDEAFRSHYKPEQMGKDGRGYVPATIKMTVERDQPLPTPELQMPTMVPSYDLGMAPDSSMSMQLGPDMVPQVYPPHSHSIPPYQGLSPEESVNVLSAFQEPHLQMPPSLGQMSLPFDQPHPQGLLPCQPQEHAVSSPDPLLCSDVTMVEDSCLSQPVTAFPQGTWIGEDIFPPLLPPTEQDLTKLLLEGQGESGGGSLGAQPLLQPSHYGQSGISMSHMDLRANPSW
# Test: Immunoblotting (Western blot) analysis of STAT6 degradation efficiency of degraders in treated cells
# Type: cell-based
# Outline: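 Protein levels of STAT5 and STAT6 were assessed in cells cultured at 37 °C in 10% FBS medium after compound exposure, by quantitative fluorescent Western blotting normalised to equal loading and referenced to GAPDH.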
# [1] = MOLM-16 cells, class symbols, read-out: DC50 S6 MOLM-16
Structure (SMILES),DC50 [1] [µM],further results
"CC(C)(C)c1ccc(C[C@H](NC(=O)c2cc3cc(C(F)(F)P(=O)(O)O)ccc3s2)C(=O)N2C[C@@H](OCCCCCCC#Cc3cccc4c3CN(C3CCC(=O)NC3=O)C4=O)C[C@H]2C(=O)N2CCO[C@H](c3ccccc3)C2)cc1 (stereo partly drawn) [Compound 589, ((2-(((2S)-3-(4-(tert-butyl)phenyl)-1-((2S,4S)-4-((8-(2-(2,6-dioxopiperidin-3-yl)-1-oxoisoindolin-4-yl)oct-7-yn-1-yl)oxy)-2-((R)-2-phenylmorpholine-4-carbonyl)pyrrolidin-1-yl)-1-oxopropan-2-yl)carbamoyl)benzo[b]thiophen-5-yl)difluoromethyl)phosphonic acid]",1 to 10,–
"Cc1ncsc1-c1ccc([C@H](C)NC(=O)[C@@H]2C[C@@H](O)CN2C(=O)[C@@H](NC(=O)CCCCNC(=O)COc2ccc3c(c2)CN(C(=O)[C@@H](NC(=O)c2cc4cc(C(F)(F)P(=O)(O)O)ccc4s2)C(C)(C)C)[C@H](C(=O)N2CCC[C@H](c4ccccc4)C2)C3)C(C)(C)C)cc1 [Compound 473, (difluoro(2-(((S)-1-((S)-7-(2-((5-(((S)-1-((2S,4R)-4-hydroxy-2-(((S)-1-(4-(4-methylthiazol-5-yl)phenyl)ethyl)carbamoyl)pyrrolidin-1-yl)-3,3-dimethyl-1-oxobutan-2-yl)amino)-5-oxopentyl)amino)-2-oxoethoxy)-3-((R)-3-phenylpiperidine-1-carbonyl)-3,4-dihydroisoquinolin-2(1H)-yl)-3,3-dimethyl-1-oxobutan-2-yl)carbamoyl)benzo[b]thiophen-5-yl)methyl)phosphonic acid]",> 10,–
"CC(C)(C)[C@H](NC(=O)c1cc2cc(C(F)(F)P(=O)(O)O)ccc2s1)C(=O)N1C[C@@H](OCCCCCCNc2cccc3c2CN(C2CCC(=O)NC2=O)C3=O)C[C@H]1C(=O)N1CCO[C@H](c2ccccc2)C1 (stereo partly drawn) [Compound 599, ((2-(((2S)-1-((2S,4S)-4-((6-((2-(2,6-dioxopiperidin-3-yl)-1-oxoisoindolin-4-yl)amino)hexyl)oxy)-2-((R)-2-phenylmorpholine-4-carbonyl)pyrrolidin-1-yl)-3,3-dimethyl-1-oxobutan-2-yl)carbamoyl)benzo[b]thiophen-5-yl)difluoromethyl)phosphonic acid]",–,"DC50 (MOLM-16 cells, numeric bound, read-out: DC50 S6 MOLM-16): > 0.3 µM"
"CC(C)(C)[C@H](NC(=O)c1cc2cc(C(F)(F)P(=O)(O)O)ccc2s1)C(=O)N1CCN(C(=O)CC(=O)NCCCC#Cc2cccc3c2C(=O)N(C2CCC(=O)NC2=O)C3=O)C[C@H]1C(=O)N1CCO[C@H](c2ccccc2)C1 (stereo partly drawn) [Compound 511, ((2-(((2S)-1-((2S)-4-(3-((5-(2-(2,6-dioxopiperidin-3-yl)-1,3-dioxoisoindolin-4-yl)pent-4-yn-1-yl)amino)-3-oxopropanoyl)-2-((R)-2-phenylmorpholine-4-carbonyl)piperazin-1-yl)-3,3-dimethyl-1-oxobutan-2-yl)carbamoyl)benzo[b]thiophen-5-yl)difluoromethyl)phosphonic acid]",1 to 10,–
"Cc1ncsc1-c1ccc(CNC(=O)[C@@H]2C[C@@H](O)CN2C(=O)[C@@H](NC(=O)CCCCCCCCCNC(=O)CO[C@@H]2C[C@@H](C(=O)N(C)c3ccc(Br)cc3)N(C(=O)[C@@H](NC(=O)c3cc4cc(C(F)(F)P(=O)(O)O)ccc4s3)C(C)(C)C)C2)C(C)(C)C)cc1 [Compound 421, ((2-(((S)-1-((2S,4R)-2-((4-bromophenyl)(methyl)carbamoyl)-4-(2-((10-(((S)-1-((2S,4R)-4-hydroxy-2-((4-(4-methylthiazol-5-yl)benzyl)carbamoyl)pyrrolidin-1-yl)-3,3-dimethyl-1-oxobutan-2-yl)amino)-10-oxodecyl)amino)-2-oxoethoxy)pyrrolidin-1-yl)-3,3-dimethyl-1-oxobutan-2-yl)carbamoyl)benzo[b]thiophen-5-yl)difluoromethyl)phosphonic acid]",–,"DC50 (L1236 cells, read-out: DC50 S6 L1236): > 10 µM; DC50 (MB231 cells, read-out: DC50 S6 MB231): > 10 µM"
